In patent US11480578B2, “Method for identifying a biomarker indicative of a reduced drug response using a thermal shift assay” (Pelago Bioscience AB, priority 2014, dated 2022):

Tested on: Methionine aminopeptidase-2
Test: cell resolved thermal shift assay (FACS sorting, heating, Western blot)
Type: cell-based, mouse
Conditions: TNP-470 final concentration 2 μM for one hour; mixed cells FACS sorted; heated 44 to 52° C.; MetAP-2 Western blot; FIG. 3
Description: Human cancer cell line K562 and mouse fibrosarcoma cell line T241 with endogenous expression of GFP, were cultured to short-term passages (3-15) in an incubator chamber. The T241 cells were treated with the MetAP-2 inhibitor TNP-470 (final concentration 2 μM) for one hour in the incubator chamber. Following incubation, the cells were washed by repeated centrifugation to pellet cells and re-dissolve in PBS. After this step, the cells were pooled into a PBS buffer. This mix of cells was then subjected to FACS sorting using a MoFlo XDP from Beckman Coulter. Cells were either sorted by their GFP fluorescence (T241) or by the lack of fluorescence (K562). The sorted cells were then aliquoted in 8 tube PCR strips and subjected to heating to temperatures ranging from 44 to 52° C. with two degree increments. After heating, the cells were snap frozen in N2 (I) and freeze thawed. The resulting cell debris together with precipitated protein was pelleted by centrifugation at 20000*g for 20 minutes. The supernatants, containing various amount of the target protein (MetAP-2) were subjected to standard SDS-Page and Western blot analysis using a specific primary MetAP-2 antibody (Santa Cruz Biotechnology SC-365637) at 1:400 dilution in non-fat dietary milk.

## CO[C@@H]1[C@H](OC(=O)NC(=O)CCl)CC[C@]2(CO2)[C@H]1[C@@]1(C)O[C@@H]1CC=C(C)C [TNP-470]
  stabilisation of the target protein Methionine aminopeptidase-2 (dark band shows presence of heat stabilised protein): stabilisation
